Assay results: article PMC6013495, “Development of a Novel Backbone Cyclic Peptide Inhibitor of the Innate Immune TLR/IL1R Signaling Protein MyD88” (Scientific Reports, 2018)

Legend:
[1] = target: T1, SUMO protein fused to eGFP (Homo sapiens, UniProt P55854); assay: Binding of Biotin-MyDI to control SUMO-eGFP fusion protein; conditions: SUMO-eGFP coated, Streptavidin-HRP read-out
T1 construct: His tag; made in house; host or cells: E. coli BL21 C43 (DE3)

[2] = target: T2, human MyD88 TIR domain (aa 150–296) (Homo sapiens, UniProt Q99836); assay: Competitive binding assay, Biotin-MyDI on recombinant SUMO-MyD88-TIR; conditions: SUMO-MyD88-TIR 8 µg/ml coated, Streptavidin-HRP read-out
T2 construct: human MyD88 TIR domain residues 150–296; His tag; made in house; host or cells: E. coli BL21 C43 (DE3)
From the text: A synthetic DNA fragment corresponding to the cDNA encoding human MyD88 TIR domain residues 150–296 with BamH/Xhol restriction enzymes was from IDT (Integrated DNA technologies, IA, USA). DNA was amplified with the Ready-mix PCR kit (Sigma), and ligated (New England BioLabs, MA, USA) with the restriction enzymes BamH and Xhol (TaKaRa, Kusatsu, Shiga Prefecture, Japan) to pETM-11 SUMO3GFP fusion vector for protein expression in E. coli, a gift from the EMBL protein expression and purification core facility. Plasmids were gel purified with PureLink Quick Gel Extraction kit (Invitrogen, San Diego, CA, USA), sequence verified, and transformed to (C2987) NEB Dh5a competent cells (New England BioLabs) and amplified with a QIAGEN plasmid midiprep kit. The recombinant fusion protein- SUMO-MyD88-TIR was expressed in E. coli BL21 C43 (DE3) cells (Lucigen, WI, USA). E. coli BL21 C43(DE3) were grown in 2xYT medium containing 1% glucose, […] MgSO4 and 20xNPS (100 mM PO4, 25mMSO4, 50 mM NH4. 100 mM Na, 50 mM K) up to mid-log phase (O.D-0.6) in 37 °C and then were grown o.n at 25 °C with 0.4 mM IPTG (Sigma). […]
The recombinant SUMO-MyD88-TIR protein (8 µg/ml) was attached to polystyrene microtiter 96 well plates (Nunc, Roskilde, Denmark) at 4 °C o.n. […] After 5 min, 2 N sulfuric acid stop solution was added and absorbance was read at 450 nm in an Infinite 200 Pro plate reader (Tecan). […]

T2 sequence (Q99836 150-296): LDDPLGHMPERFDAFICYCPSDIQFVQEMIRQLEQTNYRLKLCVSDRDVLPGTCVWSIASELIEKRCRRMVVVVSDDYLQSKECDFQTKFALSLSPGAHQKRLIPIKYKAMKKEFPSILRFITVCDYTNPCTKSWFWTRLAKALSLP

With “Biotin-MyDI: Biotinylated linear BB loop peptide RDVLPGT, from Bio Basic Inc.” the “binding to control fusion protein” value [1] was “did not bind at any concentration” and the “binding to the MyD88 TIR domain” value [2] was “bound the TIR domain in a concentration dependent manner”.
